The target in experiment [1] is Tyrosine-protein kinase Fer (Homo sapiens) (UniProt P16591). Kind of experiment: Inhibition of human recombinant FER at 40 nM in presence of ATP by radiometric assay relative to control.
The target in experiment [2] is Tyrosine-protein kinase Lck (Homo sapiens) (UniProt P06239). As to the kind of experiment: Inhibition of human recombinant LCK at 40 nM related to control ULK1.
The target in experiment [3] is T1, Serine/threonine-protein kinase STK11 (Homo sapiens) (UniProt Q15831).
T1 sequence (whole entry): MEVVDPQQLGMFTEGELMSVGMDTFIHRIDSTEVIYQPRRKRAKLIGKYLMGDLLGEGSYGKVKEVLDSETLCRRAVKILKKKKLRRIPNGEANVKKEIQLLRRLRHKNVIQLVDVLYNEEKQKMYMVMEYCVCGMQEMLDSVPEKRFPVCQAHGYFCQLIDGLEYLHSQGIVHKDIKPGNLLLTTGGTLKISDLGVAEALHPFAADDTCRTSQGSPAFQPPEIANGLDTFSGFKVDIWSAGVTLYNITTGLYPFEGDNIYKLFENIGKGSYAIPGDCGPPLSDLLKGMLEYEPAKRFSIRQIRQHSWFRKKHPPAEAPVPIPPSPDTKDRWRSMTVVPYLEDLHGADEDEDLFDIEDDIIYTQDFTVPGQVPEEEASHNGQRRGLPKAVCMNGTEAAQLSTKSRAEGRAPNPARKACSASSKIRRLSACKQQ
Kind of experiment: Inhibition of human recombinant LKB1 at 40 nM in presence of ATP by radiometric assay relative to control.

Experiment [4] addresses Death-associated protein kinase 3 (Homo sapiens) (UniProt O43293). Kind of experiment: Inhibition of human recombinant DAPK3 at 500 nM related to control ULK1.
Experiment [5] deals with Tyrosine-protein kinase Tec (Homo sapiens) (UniProt P42680). Kind of experiment: Inhibition of human recombinant TEC at 500 nM in presence of ATP by radiometric assay relative to control.
Experiment [6] concerns the target T2, Aurora kinase C (Homo sapiens) (UniProt Q9UQB9).
T2 sequence (whole entry): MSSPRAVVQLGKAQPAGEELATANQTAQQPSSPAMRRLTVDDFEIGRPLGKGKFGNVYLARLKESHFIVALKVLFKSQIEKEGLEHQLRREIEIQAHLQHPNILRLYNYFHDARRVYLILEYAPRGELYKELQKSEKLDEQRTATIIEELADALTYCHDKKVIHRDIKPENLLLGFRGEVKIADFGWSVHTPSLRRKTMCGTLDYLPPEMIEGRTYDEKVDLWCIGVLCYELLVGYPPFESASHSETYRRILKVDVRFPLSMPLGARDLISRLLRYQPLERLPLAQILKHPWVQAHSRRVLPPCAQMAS
Kind of experiment: Inhibition of human recombinant AurC at 15 nM related to control ULK1.

For experiment [7], the target named is Serine/threonine-protein kinase pim-2 (Homo sapiens) (UniProt Q9P1W9). Kind of experiment: Inhibition of human recombinant PIM2 at 15 nM in presence of ATP by radiometric assay relative to control.
Experiment [8] has as its target Protein kinase C alpha type (Homo sapiens) (UniProt P17252). As to the kind of experiment: Inhibition of human recombinant PKCa at 15 nM in presence of ATP by radiometric assay relative to control.
Experiment [9] has as its target T3, TGF-beta receptor type-1 (Homo sapiens) (UniProt P36897).
T3 sequence (whole entry): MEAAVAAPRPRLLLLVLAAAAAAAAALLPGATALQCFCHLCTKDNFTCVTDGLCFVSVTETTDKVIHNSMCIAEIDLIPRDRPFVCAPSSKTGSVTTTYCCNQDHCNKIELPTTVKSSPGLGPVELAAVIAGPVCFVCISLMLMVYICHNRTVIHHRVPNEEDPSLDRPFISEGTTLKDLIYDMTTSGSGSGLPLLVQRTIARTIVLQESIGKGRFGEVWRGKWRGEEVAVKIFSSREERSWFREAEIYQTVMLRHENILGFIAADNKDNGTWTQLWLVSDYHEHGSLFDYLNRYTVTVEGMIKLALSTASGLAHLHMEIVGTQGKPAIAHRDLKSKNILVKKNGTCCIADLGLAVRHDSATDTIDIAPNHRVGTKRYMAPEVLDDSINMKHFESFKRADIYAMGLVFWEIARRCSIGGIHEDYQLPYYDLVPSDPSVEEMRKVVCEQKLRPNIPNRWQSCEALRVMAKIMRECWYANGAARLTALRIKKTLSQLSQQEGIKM
As to the kind of experiment: Inhibition of human recombinant TGFbR1 at 15 nM in presence of ATP by radiometric assay relative to control.

In experiment [10] the target is T4, Mitogen-activated protein kinase kinase kinase kinase 2 (Homo sapiens) (UniProt Q12851).
T4 sequence (whole entry): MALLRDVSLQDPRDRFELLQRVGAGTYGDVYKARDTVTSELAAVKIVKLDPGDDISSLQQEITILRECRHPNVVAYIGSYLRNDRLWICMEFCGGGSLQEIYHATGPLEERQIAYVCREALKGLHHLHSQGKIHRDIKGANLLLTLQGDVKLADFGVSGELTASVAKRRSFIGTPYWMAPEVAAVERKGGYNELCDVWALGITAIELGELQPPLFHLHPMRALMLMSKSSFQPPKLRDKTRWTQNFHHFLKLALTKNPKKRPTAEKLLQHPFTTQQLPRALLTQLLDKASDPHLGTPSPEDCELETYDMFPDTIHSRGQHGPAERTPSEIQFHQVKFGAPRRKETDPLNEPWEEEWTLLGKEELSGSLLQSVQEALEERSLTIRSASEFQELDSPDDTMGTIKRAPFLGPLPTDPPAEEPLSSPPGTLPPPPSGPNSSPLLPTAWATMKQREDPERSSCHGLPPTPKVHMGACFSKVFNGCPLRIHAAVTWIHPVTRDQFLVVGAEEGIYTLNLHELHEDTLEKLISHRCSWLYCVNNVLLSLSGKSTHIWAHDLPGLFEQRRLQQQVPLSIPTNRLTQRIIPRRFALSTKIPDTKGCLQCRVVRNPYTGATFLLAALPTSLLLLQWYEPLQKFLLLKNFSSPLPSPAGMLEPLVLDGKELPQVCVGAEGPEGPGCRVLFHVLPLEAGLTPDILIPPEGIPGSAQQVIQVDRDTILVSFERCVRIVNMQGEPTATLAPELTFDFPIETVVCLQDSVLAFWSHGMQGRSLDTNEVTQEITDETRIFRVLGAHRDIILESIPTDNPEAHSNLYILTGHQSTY
As to the kind of experiment: Inhibition of human recombinant GCK at 15 nM related to control ULK1.

Experiment [11] deals with High affinity nerve growth factor receptor (Homo sapiens) (UniProt P04629). Kind of experiment: Inhibition of human recombinant TRKA at 15 nM in presence of ATP by radiometric assay relative to control.
For experiment [12], the target named is Bone morphogenetic protein receptor type-1B (Homo sapiens) (UniProt O00238). Kind of experiment: Inhibition of human recombinant BMPR1B at 15 nM related to control ULK1.
In experiment [13] the target is Tyrosine-protein kinase Fes/Fps (Homo sapiens) (UniProt P07332). Kind of experiment: Inhibition of human recombinant FES at 15 nM related to control ULK1.
Sequence of Tyrosine-protein kinase Fes/Fps (Homo sapiens) (P07332 whole entry): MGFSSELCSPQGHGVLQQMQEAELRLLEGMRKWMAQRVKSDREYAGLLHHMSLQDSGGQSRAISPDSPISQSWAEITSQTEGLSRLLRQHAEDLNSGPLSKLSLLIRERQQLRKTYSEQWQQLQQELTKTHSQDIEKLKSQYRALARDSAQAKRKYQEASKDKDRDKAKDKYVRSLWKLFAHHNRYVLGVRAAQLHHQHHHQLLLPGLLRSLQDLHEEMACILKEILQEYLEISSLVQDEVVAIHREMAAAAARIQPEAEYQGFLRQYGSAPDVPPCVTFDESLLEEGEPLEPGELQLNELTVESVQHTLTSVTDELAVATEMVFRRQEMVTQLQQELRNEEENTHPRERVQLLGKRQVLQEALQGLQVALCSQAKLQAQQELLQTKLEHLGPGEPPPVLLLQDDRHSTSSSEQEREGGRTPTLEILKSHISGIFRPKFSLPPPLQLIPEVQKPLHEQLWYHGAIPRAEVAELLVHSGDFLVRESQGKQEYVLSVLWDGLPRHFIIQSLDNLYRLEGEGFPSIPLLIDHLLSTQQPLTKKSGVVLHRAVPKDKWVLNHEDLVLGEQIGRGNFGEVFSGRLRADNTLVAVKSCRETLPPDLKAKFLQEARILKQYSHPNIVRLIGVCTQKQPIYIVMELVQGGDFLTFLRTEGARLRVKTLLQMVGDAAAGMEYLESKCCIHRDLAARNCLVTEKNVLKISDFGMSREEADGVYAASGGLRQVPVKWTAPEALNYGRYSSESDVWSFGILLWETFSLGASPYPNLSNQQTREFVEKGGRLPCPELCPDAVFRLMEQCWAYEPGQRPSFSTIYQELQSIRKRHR

Sequence of Bone morphogenetic protein receptor type-1B (Homo sapiens) (O00238 whole entry): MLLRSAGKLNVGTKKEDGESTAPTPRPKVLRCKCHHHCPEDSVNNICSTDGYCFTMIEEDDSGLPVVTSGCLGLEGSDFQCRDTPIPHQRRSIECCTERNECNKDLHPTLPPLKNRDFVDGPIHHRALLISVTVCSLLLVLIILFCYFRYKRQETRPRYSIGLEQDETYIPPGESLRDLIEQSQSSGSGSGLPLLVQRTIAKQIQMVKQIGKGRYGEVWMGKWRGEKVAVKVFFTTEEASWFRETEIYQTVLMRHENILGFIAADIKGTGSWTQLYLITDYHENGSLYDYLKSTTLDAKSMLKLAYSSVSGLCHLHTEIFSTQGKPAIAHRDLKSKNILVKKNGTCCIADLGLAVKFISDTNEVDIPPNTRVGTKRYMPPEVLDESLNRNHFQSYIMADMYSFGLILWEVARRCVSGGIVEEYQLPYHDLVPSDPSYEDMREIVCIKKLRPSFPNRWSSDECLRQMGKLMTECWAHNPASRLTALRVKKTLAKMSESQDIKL
Sequence of Tyrosine-protein kinase Tec (Homo sapiens) (P42680 whole entry, looked up): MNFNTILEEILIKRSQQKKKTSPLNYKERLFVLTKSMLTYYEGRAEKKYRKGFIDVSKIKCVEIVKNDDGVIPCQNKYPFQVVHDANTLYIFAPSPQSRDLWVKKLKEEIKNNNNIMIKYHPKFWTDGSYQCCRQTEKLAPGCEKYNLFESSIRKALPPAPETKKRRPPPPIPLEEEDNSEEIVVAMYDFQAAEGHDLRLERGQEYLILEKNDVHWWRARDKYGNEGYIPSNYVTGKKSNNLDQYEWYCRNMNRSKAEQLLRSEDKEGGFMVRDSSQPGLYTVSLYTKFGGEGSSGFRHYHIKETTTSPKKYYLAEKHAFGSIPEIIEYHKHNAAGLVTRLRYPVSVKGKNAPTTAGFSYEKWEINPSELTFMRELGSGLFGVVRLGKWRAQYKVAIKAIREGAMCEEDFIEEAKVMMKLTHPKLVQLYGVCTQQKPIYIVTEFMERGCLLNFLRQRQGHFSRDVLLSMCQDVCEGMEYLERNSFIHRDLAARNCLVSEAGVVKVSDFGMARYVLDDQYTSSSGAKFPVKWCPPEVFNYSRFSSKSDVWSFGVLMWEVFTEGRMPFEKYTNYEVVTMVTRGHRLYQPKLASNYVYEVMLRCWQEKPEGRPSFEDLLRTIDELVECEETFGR
Sequence of Tyrosine-protein kinase Lck (Homo sapiens) (P06239 2-509 limits assumed): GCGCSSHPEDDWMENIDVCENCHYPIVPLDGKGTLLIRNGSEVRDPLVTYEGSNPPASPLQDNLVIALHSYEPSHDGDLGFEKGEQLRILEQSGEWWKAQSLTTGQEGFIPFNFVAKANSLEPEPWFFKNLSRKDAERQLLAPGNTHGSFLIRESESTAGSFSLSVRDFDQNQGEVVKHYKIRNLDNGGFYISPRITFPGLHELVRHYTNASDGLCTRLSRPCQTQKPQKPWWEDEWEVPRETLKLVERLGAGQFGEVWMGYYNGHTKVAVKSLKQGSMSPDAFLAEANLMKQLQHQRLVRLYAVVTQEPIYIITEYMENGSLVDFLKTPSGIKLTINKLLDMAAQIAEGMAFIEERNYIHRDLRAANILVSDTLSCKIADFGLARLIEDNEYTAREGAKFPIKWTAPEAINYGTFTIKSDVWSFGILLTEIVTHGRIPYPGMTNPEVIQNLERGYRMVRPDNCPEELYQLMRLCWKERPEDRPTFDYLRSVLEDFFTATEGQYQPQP
Sequence of Serine/threonine-protein kinase pim-2 (Homo sapiens) (Q9P1W9 whole entry, looked up): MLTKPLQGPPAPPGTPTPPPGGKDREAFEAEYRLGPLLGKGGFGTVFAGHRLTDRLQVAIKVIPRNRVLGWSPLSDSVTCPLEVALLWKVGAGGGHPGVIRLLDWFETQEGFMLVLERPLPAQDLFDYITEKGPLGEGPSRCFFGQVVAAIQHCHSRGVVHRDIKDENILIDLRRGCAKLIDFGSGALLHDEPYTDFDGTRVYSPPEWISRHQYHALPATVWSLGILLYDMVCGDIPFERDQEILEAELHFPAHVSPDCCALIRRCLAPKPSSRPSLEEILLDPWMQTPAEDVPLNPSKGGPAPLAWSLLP
Sequence of High affinity nerve growth factor receptor (Homo sapiens) (P04629 33-796 limits assumed): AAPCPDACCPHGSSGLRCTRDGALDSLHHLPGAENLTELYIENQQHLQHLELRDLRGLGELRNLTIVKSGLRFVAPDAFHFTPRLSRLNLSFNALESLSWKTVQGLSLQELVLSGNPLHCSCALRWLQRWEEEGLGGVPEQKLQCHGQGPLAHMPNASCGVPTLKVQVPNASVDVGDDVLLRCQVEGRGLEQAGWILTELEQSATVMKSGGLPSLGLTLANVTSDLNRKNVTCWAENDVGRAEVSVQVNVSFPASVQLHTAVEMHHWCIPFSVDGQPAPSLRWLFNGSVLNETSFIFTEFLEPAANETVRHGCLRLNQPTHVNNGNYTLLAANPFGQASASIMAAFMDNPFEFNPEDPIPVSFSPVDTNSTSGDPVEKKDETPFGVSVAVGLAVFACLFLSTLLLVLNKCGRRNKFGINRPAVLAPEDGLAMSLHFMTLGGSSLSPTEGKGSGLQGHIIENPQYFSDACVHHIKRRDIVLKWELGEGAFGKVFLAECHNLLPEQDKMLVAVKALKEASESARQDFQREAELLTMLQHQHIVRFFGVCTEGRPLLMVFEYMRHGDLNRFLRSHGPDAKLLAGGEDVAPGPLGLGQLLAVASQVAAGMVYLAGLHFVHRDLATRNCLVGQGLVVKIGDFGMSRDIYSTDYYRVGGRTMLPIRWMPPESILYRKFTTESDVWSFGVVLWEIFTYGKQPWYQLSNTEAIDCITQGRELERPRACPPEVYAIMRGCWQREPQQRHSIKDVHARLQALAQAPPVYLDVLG
Sequence of Death-associated protein kinase 3 (Homo sapiens) (O43293 whole entry, looked up): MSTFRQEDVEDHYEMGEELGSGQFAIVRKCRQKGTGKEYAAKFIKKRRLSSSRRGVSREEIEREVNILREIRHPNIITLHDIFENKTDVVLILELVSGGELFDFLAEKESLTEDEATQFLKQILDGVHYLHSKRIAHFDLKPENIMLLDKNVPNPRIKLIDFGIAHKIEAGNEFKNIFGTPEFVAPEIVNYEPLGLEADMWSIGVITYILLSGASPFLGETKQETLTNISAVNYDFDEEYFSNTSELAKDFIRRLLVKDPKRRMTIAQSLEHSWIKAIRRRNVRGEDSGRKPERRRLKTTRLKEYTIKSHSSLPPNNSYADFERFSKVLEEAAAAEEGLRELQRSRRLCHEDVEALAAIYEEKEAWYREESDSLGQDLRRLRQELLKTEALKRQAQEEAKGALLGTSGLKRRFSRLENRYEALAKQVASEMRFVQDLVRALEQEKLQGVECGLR
Sequence of Tyrosine-protein kinase Fer (Homo sapiens) (P16591 whole entry, looked up): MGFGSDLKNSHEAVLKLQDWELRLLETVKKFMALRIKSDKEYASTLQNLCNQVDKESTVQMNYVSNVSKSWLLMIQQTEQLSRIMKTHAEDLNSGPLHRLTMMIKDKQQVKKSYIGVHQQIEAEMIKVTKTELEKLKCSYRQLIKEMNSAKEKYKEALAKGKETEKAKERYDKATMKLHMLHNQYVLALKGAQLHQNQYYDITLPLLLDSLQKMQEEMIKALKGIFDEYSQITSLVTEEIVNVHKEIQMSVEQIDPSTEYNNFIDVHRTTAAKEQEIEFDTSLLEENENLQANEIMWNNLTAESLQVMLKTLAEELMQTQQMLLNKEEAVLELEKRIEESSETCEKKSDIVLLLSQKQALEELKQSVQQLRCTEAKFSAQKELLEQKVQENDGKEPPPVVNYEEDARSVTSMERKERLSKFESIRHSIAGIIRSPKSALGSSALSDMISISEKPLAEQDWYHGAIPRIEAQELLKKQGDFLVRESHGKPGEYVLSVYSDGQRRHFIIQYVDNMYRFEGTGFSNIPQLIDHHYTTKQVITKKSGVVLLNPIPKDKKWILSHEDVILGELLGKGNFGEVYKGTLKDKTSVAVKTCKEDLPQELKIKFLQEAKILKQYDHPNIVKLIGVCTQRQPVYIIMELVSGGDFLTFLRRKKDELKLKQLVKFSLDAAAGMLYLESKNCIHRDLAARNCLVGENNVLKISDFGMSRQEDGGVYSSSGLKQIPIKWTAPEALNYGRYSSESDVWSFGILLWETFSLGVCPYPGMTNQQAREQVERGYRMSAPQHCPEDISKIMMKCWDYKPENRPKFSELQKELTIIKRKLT

With `O=C(N[C@@H](C1CC1)C(F)(F)F)c1cc(-c2cnn3cc(-c4ccc(F)cc4)cnc23)cs1`, the inhibition was 0% in experiment [1] and 13% in experiment [3]. In addition, the fold change (FC) in experiment [2] was 0.
For `CNC(=O)c1ccccc1Oc1nc(Nc2cc(OC)c(OC)c(OC)c2)ncc1Br`, the fold change (FC) in [4] was found to be 0.14. Also, in [5], the inhibition was 2%.
In the case of `CC(C)[C@H](NC(=O)c1cc(-c2cnn3cc(-c4ccc(OCCN5CCCCC5)cc4)cnc23)cs1)C(F)(F)F`, the fold change (FC) was 0.09 in experiment [6], 0.39 in experiment [10], 0.27 in experiment [12] and 0 in experiment [13]. The inhibition was 0% in experiment [7], 7% in experiment [8], 4% in experiment [9] and 0% in experiment [11].

A word on the inhibition: it is the drop in the measured response relative to a control, in per cent.
